Several values for one entry are separate records, joined by “and”; a condition that tells them apart may be missing. Equal values may be shown once.
Columns and labels:
[1] = Ames MPF Penta 2 microplate mutagenicity assay, TA98; format: cell-based; conditions: Salmonella typhimurium, read-out: FIB (fold induction over baseline)
Procedure: (§1) The assay is a liquid microplate modification of the traditional Salmonella test. During the procedure, bacteria are exposed to different concentrations of a test compound for 90 min in a medium containing sufficient histidine (S. typhimurium) or tryptophan (E. coli) to support cell divisions. Then, the cultures are diluted in pH indicator medium lacking histidine or tryptophan and aliquoted into 48 wells of a 384-well plate. Within 48 hours, cells that have undergone reversion to amino acid prototrophy will grow into colonies. Bacterial metabolism reduces pH of the medium, changing the color of that well from purple to yellow (https://www.xenometrix.ch).
(§2) The following strains were used in the study: S. typhimurium TA98, TA100, TA1535, TA1537 and E. coli wp2 uvrA[pKM101]. TA100, TA1535 and E. coli strains are used for the detection of base substitution mutations, whereas TA98 and TA1537 are utilized for the detection of frameshift mutations. S. typhimurium strains have GC base pairs, whereas E. coli strain has AT base pair at their primary reversion site and detect certain oxidizing mutagens, cross-linking agents and hydrazines.
(§3) The test procedure provided by Xenometrix (https://www.xenometrix.ch) and described earlier was followed. Briefly, the bacterial strains were grown overnight in exposure medium and exposed to test compounds 4g and 3b in 24-well plates for 90 min at 37 °C with agitation in the absence (–S9) or presence (+S9) of 4.5% phenobarbital/ β-naphthoflavone-induced rat liver S9. Compounds 4g and 3b were dissolved in DMSO and tested at final concentrations of 0.1, 0.2 and 0.5 mM. After the preincubation, the cultures were diluted in the indicator medium and the contents of each 24-well culture were distributed into 48 wells on a 384-well plate and incubated further for 48 h at 37 °C without agitation. After the exposure, the number of wells containing bacteria was scored by eye for yellow wells. Positive and negative controls were included in the assay, and all doses were done in triplicate.
(§4) Pure DMSO was used as the negative control.
(§5) The fold increase of revertants relative to the solvent control was determined by dividing the mean number of positive wells at each dose by the solvent control at baseline. The solvent control at baseline was defined as the mean number of positive wells in the solvent control plus one standard deviation (SD). When an increase of more than 2-fold relative to the baseline at more than one dose with a dose–response is observed the sample is classified as positive, whereas when no response >2 times the baseline and no dose–response is stated the sample is negative.

[2] = Ames MPF Penta 2 microplate mutagenicity assay, TA1537; conditions: Salmonella typhimurium, FIB (fold induction over baseline)
Procedure: as §1, §2, §3, §4, §5

[3] = test system: Salmonella typhimurium and Escherichia coli strains; test: Ames MPF Penta 2 mutagenicity assay, overall verdict over all strains; format: cell-based; conditions: in the absence and presence of metabolic activation
Description: (§6) Growth, exposure and indicator media, liver S9 fraction, S9-NADP, S9-G-6-P, positive control chemicals as well as Salmonella typhimurium and Escherichia coli strains were included in the kit from Xenometrix. According to the obtained results, there were no doses of test compounds 3b and 4g with more than a 2-fold induction over the baseline, and a dose dependent response was not observed both in the absence and presence of metabolic activation (Table S3). Therefore, compounds 3b and 4g were clearly non-mutagenic in the absence and presence of metabolic activation.

[4] = as above; format: cell-based, Salmonella typhimurium, Escherichia coli; conditions: Salmonella typhimurium, Escherichia coli; 0.1, 0.2 and 0.5 mM, absence and presence of metabolic activation; read-out: fold induction over the baseline, any dose and strain
Description: as §6

[5] = Photostability in macrogol formulations on PMMA plates (solar light simulator); format: physicochemical; conditions: for % of Initial AUC / % of Initial SPFin vitro / % of Initial UVA PF: after 1 h irradiation at 500 W/m^2, formulation F1
Summary of the method: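 Macrogol formulations (2% w/w) applied at 1.3 mg/cm² on PMMA plates were irradiated 1 h at 500 W/m² (218 kJ/m² UV) in a solar simulator with <290 nm cut-off and IR block. SPFin vitro, UVA PF and AUC were compared before and after exposure, with methanol washes analysed by UPLC-MS/MS, in duplicate.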

[6] = Ames MPF Penta 2 microplate mutagenicity assay, TA1535; conditions: Salmonella typhimurium, FIB (fold induction over baseline)
Procedure: as §1, §2, §3, §4, §5

[7] = Photostability in methanol solutions (solar light simulator); format: physicochemical; design: λmax pre-irradiation: unit not given beside the values; conditions: methanol solution; for % of initial AUC post-irradiation / λmax post-irradiation: 1h irradiation at 500 W/m2
Summary of the method: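 Compounds at 25 or 50 µM in methanol, in stoppered quartz cuvettes, were irradiated 1 h at 500 W/m^2 (UV dose 218 kJ/m^2). A solar simulator filtered below 290 nm with an IR block was used. UV absorption spectra before and after irradiation were compared, with UPLC-MS/MS analysis, in duplicate.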

[8] = S. typhimurium TA98 without S9 (–S9), TA98, –S9, 0.1 mM
[9] = S. typhimurium TA98 without S9 (–S9), TA98, –S9, 0.2 mM
[10] = S. typhimurium TA98 without S9 (–S9), TA98, –S9, 0.5 mM

Row | SMILES | fold induction at 90 min, 0.1 mM [1, 8] | fold induction at 90 min, 0.2 mM [1, 9] | fold induction at 90 min, 0.5 mM [1, 10] | fold induction at 90 min, 0.1 mM ([1]; TA98, +S9, 0.1 mM) | fold induction at 90 min, 0.2 mM ([1]; TA98, +S9, 0.2 mM) | fold induction at 90 min, 0.5 mM ([1]; TA98, +S9, 0.5 mM) | fold induction at 90 min, 0.1 mM ([2]; TA1537, +S9, 0.1 mM) | fold induction at 90 min, 0.2 mM ([2]; TA1537, +S9, 0.2 mM) | fold induction at 90 min, 0.5 mM ([2]; TA1537, +S9, 0.5 mM) | fold induction at 90 min, 0.1 mM ([2]; TA1537, –S9, 0.1 mM) | fold induction at 90 min, 0.2 mM ([2]; TA1537, –S9, 0.2 mM) | fold induction at 90 min, 0.5 mM ([2]; TA1537, –S9, 0.5 mM) | mutagenicity (verdict in words) [3] | fold induction at 90 min [4] | % of Initial AUC [5] | % of Initial SPFin vitro [5] | % of Initial UVA PF [5] | photostability (in words) ([5]; macrogol formulation) | fold induction at 90 min, 0.1 mM ([6]; TA1535, +S9, 0.1 mM) | fold induction at 90 min, 0.2 mM ([6]; TA1535, +S9, 0.2 mM) | other results
1 | CCOC(=O)CN1C(=O)/C(=C/c2ccc(OC)cc2)N(CC(=O)OCC)C1=O [Compound 3b, Diethyl 2,2′-((Z)-4-(4-methoxybenzylidene)-2,5-dioxoimidazolidine-1,3-diyl)diacetate] | 0.9 | 0.2 | 0.9 | 0.2 | 0.4 | 0.3 | 1.1 | 1.1 | 0.3 | 0.3 | 0.3 | 0.3 | non-mutagenic | ≤ 2 | 84.67% and 76.50% | 80.46% and 72.69% | 87.04% and 84.08% | very good | 0.5 | 0.1 | photoisomer in post-irradiation chromatogram ([5]; macrogol formulation, UPLC-MS/MS): 32.1%; new photoproduct (besides photoisomer), relative peak area ([5]; macrogol formulation, post-irradiation chromatogram): 2.4%; fold induction at 90 min, 0.5 mM ([6]; TA1535, +S9, 0.5 mM): 0.1; fold induction at 90 min, 0.1 mM ([6]; TA1535, –S9, 0.1 mM): 0.8; fold induction at 90 min, 0.2 mM ([6]; TA1535, –S9, 0.2 mM): 0.6; fold induction at 90 min, 0.5 mM ([6]; TA1535, –S9, 0.5 mM): 1.7; λmax pre-irradiation [7]: 318; % of initial AUC post-irradiation [7]: 114.39%; λmax post-irradiation [7]: 326; percentage of photoisomer formation ([7]; post-irradiation chromatogram): 28.4%
2 | CCOC(=O)CN1C(=O)/C(=C/C=C/c2ccc(OC)cc2)N(CC(=O)OCC)C1=O [Compound 4g, Diethyl 2,2′-((Z)-4-((E)-3-(4-methoxyphenyl)allylidene)-2,5-dioxoimidazolidine-1,3-diyl)diacetate] | 0.5 | 0.9 | 0.2 | 0.3 | 0.4 | 0.6 | 1.4 | 1.1 | 0.8 | 0.3 | 1.7 | 0.5 | non-mutagenic | ≤ 2 | 51.98% | 86.29% | 34.39% | favorable photostability | 0.3 | 0.7 | fold induction at 90 min, 0.5 mM ([6]; TA1535, +S9, 0.5 mM): 0.3; fold induction at 90 min, 0.1 mM ([6]; TA1535, –S9, 0.1 mM): 0.3; fold induction at 90 min, 0.2 mM ([6]; TA1535, –S9, 0.2 mM): 1.4; fold induction at 90 min, 0.5 mM ([6]; TA1535, –S9, 0.5 mM): 0.6; decrease of AUC after irradiation [7]: 19.9%; λmax pre-irradiation [7]: 379; % of initial AUC post-irradiation [7]: 80.15%; λmax post-irradiation [7]: 378

From article PMC6630718, “Discovery of Novel UV-Filters with Favorable Safety Profiles in the 5-Arylideneimidazolidine-2,4-dione Derivatives Group” (Molecules, 2019)
